Source: patent publication US9109155B2, “Heterocycle-functionalized luminogens exhibiting aggregation-induced emission” (THE HONG KONG UNIVERSITY OF SCIENCE AND TECHNOLOGY, priority 2013, dated 2015)
“Also recorded” adds a separate entry of the source.

Columns and labels:
HeLa cells = assay: Photobleaching under continuous laser excitation in stained HeLa cells; format: cell-based; details: continuous excitation 180 s, 0.6 mW; 405 nm for TPEPy-PF6, 588 nm for MitoTracker Red
[1] = test system: caspase-3 activity in MCF-7 cells; assay: CLSM imaging of caspase-3 activity / apoptosis in MCF-7 cells; format: cell-based
Description: FIGS. 46a-46c show normal MCF-7 cells treated with Ac-DEVD-PyTPE (5 μM, 1% DMSO) for 2 h.
FIGS. 46d-46f show apoptotic MCF-7 cells treated with Ac-DEVD-PyTPE (5 μM, 1% DMSO) and caspase-3 antibody. STS (3 μM) was used to induce cell apoptosis. Red=probe fluorescence; Green=immunofluorescence signal generated from anti-caspase-3 primary antibody and a FITC labeled secondary antibody.
All images were acquired in the same way.
Additionally, apoptotic MCF-7 cells were treated with both Ac-DEVD-PyTPE and commercial Annexin V-Alexa Fluor.

caspase-3 = biological target: T1, caspase-3 (Homo sapiens, UniProt P42574); assay: Ac-DEVD-PyTPE fluorescence turn-on assay with caspase-3 in PIPES buffer; format: biochemical
T1 sequence (P42574 29-175 limits assumed): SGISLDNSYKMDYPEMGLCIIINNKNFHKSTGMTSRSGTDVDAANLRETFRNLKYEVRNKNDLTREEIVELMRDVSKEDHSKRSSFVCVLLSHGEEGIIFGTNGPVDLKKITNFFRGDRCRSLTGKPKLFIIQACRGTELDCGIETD
T1 sequence (P42574 176-277 limits assumed): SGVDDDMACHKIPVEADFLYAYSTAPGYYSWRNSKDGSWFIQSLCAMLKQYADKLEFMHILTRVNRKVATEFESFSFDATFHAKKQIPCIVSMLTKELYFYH
Description: [caspase-3]=5 μg mL^−1, [Ac-DEVD-PyTPE]=10 μM.
(§1) Inset: photographs taken under UV illumination. λex=405 nm; λem=610 nm.
Particles with an average diameter of 92 nm formed in addition to the increase of fluorescence in the solution (FIG. 43a). […] The caspase-3/7 catalyzed hydrolysis of Ac-DEVD-PyTPE is shown in the reaction scheme below.
In the absence of caspase-3, nearly no change in fluorescence is observed, confirming that Ac-DEVD-PyTPE is specifically recognized and cleaved by caspase-3.
(§2) As shown, caspase-3 and caspase-7 display respectively about 43- and 36-fold higher changes in (I−I0)/I0 than the other four enzymes.

caspase-7 = biological target: T2, caspase-7 (Homo sapiens, UniProt P55210); assay: Ac-DEVD-PyTPE fluorescence turn-on assay with caspase-7; format: biochemical; details: caspase-7 vs pepsin, trypsin, papain, lysozyme; protein 20 μg mL^−1; λex 405 nm, λem 610 nm
T2 sequence (P55210 24-198 limits assumed): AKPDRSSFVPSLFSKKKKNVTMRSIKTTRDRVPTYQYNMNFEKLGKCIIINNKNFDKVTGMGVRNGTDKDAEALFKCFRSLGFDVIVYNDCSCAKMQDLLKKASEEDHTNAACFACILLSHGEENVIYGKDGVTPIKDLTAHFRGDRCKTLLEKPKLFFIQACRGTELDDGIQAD
T2 sequence (P55210 207-303 limits assumed): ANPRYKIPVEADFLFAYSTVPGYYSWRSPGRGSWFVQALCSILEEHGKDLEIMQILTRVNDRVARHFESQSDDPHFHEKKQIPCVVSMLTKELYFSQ
Description: as §1, §2

subcutaneous C6 tumor = assay: In vivo and ex vivo fluorescence imaging of apoptosis in C6 tumor-bearing mice
Description: Only apoptotic tumors were clearly visualized.
Subcutaneous C6 tumor-bearing mice with and without intravenous injection of STS were imaged for 30 min using an IVIS spectrum imaging system. […] In contrast, the fluorescence signals from the tumor-bearing animals without treatment of STS and normal tissues are very weak. […] Additionally, the fluorescence changes in tumoral and normal tissues as a function of time for each experiment are shown in FIG. 50b. A 3-fold fluorescence enhancement of the apoptotic tumoral tissues relative to normal tissues is observed as early as 5 min after injection of Ac-DEVD-PyTPE, but only a slight fluorescence increase is observed over 15 min.
FIG. 50c show IVIS spectrum analysis of apoptotic and non-apoptotic tumors that were excised immediately after in vivo imaging.

[2] = Metabolic viability of MCF-7 cancer cells after incubation with probe; format: cell-based; details: human, 5, 10 and 20 μM for 12, 24 and 48 h, read-out: cell viability
Description: This is indicative of the low cytotoxicity of the Ac-DEVD-PyTPE probe.

Solubility = details: for solubility in common organic solvents: THF, toluene, DCM, chloroform
[3] = test system: mitochondria of HeLa cells; assay: Living HeLa cell staining and co-staining with MitoTracker Red; format: cell-based; details: 15 min
Description: In a further embodiment, the present subject matter is directed to the use of the TPEPy-PF6 luminogen as a fluorescent stain for living cell imaging. Nanoaggregates of TPEPy-PF6 were prepared in minimum essential medium/DMSO mixtures and the HeLa cells were imaged using a standard cell-staining protocol. The living cells were incubated with TPEPy-PF6 (5 μM) for 15 min and then washed three times with phosphate buffered saline solution.
Living cells were incubated with both mitochondria-targeted dye MitoTracker Red (100 nM) and TPEPy-PF6 (5 μM) for 15 min at 37° C. by the above procedure. […] Therefore, one embodiment of the present subject matter relates to the use of the TPEPy-PF6 luminogen to exclusively stain the mitochondria of living cells.

C6 tumor = assay: In vivo screening of apoptosis inducing agents in C6 tumor-bearing mice; details: treated overnight, probe injected into tumor, 15 min; compared with DMSO, cisplatin, sodium ascorbate
Description: C6 tumor-bearing mice were treated with several compounds, namely DMSO, STS, cisplatin (CIS), and sodium ascorbate (Na asb), overnight, and Ac-DEVD-PyTPE was subsequently injected into the tumor directly. After 15 min incubation, the mice were imaged using an IVIS spectrum imaging system.

MCF-7 cells = assay: In situ screening of apoptosis inducers in MCF-7 cells with Ac-DEVD-PyTPE; format: cell-based; details: 3 μM in DMSO, 2 h; compared with sodium ascorbate and cisplatin
Description: [Ac-DEVD-PyTPE]=3 μM. All images were acquired in the same way.
Three known apoptosis inducers, sodium ascorbate, cisplatin and STS, were used to treat MCF-7 cells. After the cells were incubated with Ac-DEVD-PyTPE for 2 h, each compound (3 μM in DMSO) was added into the chamber for an additional 2 h incubation. The apoptosis-inducing capabilities of these agents were evaluated by monitoring the cell fluorescence increase with a confocal microscopy.

[4] = Fluorescent sensing of Hg2+ in aqueous buffer and in solid film
Description: I0=the emission intensity at 640 nm in absence of Hg^2+. Inset: photographs of TPEBe-I in aqueous buffer with [Hg^2+] of 0 and 2.0 mM taken under 365 nm UV illumination. Solution concentration: 20 μM; excitation wavelength: 480 nm.
Black bars represent the addition of different metal ion (2 mM) to solution of the TPEBe-I. Red bars represent the subsequent addition of 2 mM Hg^2+ to the solution. λex=480 nm. λem=640 nm.
Accordingly, in one embodiment, the present subject matter relates to the use of Hg^2+ to bind to iodine ions in TPEBe-I in order to restore the emission of the cationic luminogen. […] In addition, the spectrum slightly red-shifted with increasing concentration of Hg^2+. […] When the concentration of Hg^2+ is 2.0 mM, the emission intensity of TPEBe-I is enhanced 80-fold. Moreover, the emission color also changes from dark into bright red under 365 nm UV illumination. Accordingly, another embodiment of the present subject matter relates to the use of TPEBe-I luminogens as an “off-on” sensor for Hg^2+ in aqueous solution.
In addition, the present subject matter relates to using the TPEBe-I luminogen as a fluorescent sensor for Hg^2+.
This is likely due to protons combining with iodine ions, leading to a faint increase in emission. In contrast, under basic conditions (pH≧7), TPEBe-I in the absence of Hg^2+ is weakly emissive due to the quenching effect of the iodine ions. […] The emission intensity decreases at a pH greater than 8, but is still higher than the emission intensity of TPEBe-I in the absence of Hg^2+. […] The lower emission intensity of TPEBe-I under more basic conditions is attributed to the formation of Hg(OH)2, thereby reducing the amount of free Hg^2+. In addition, the hydroxyl group (OH) in basic conditions can destroy the structure of TPEBe-I, resulting in inactivation of its sensing ability.
In another embodiment, a solid-state fluorescent probe for the detection of Hg^2+ was developed using the TPEBe-I luminogen. […] As shown, the spots of film polluted by the aqueous solution containing Hg^2+ changed to a red color with varying degrees while the untreated surrounding areas show the initial dark color. This illustrates that the solid-state film of TPEBe-I has a very sensitive response to Hg^2+ in a pure aqueous solution. Therefore, one embodiment of the present subject matter relates to the use a TPEBe-I solid-state fluorescent probe for detecting and tracking the amount of Hg^2+ in an aqueous solution. In one embodiment, the detection amount can reach 1 μM ([…]).

[5] = Fluorescent sensing of ATP in aqueous solution with 1% DMSO
Description: I0=PL intensity at 620 nm in absence of ATP. Inset in B: plot of (I−I0)/I0 value versus concentration of ATP from 0 to 20 μM.
I0=photoluminescence intensity at 620 nm in absence of nucleotide. Inset: Photographs of TPBBe-I in aqueous solution with 1% DMSO with various nucleotides (600 μM) taken under 365 nm UV illumination.
When the concentration of ATP is 600 μM, the emission intensity of TPEBe-I increases 20-fold. Moreover, the emission color also changes from dark into bright red under 365 nm UV illumination (FIG. 53b). […] Obviously, the value of (I−I0)/I0 has a linear relationship with ATP from 0 to 20 μM.
The fluorescence response of TPEBe-I was carried out using ATP, ADP and AMP. […] Accordingly, one embodiment relates to the use of TPEBe-I as a highly sensitive and selective fluorescent sensor for ATP.

[6] = excised immediately after in vivo imaging

ClCc1ccc(C2=c3cc4c5c(c3Oc3c2cc2c6c3CCCN6CCC2)CCC[N+]=5CCC4)cc1.[Cl-] [MitoTracker Red, reference compound]
luminescence intensity remaining relative to initial value (HeLa cells): about 20%

CC(=O)N[C@@H](CC(=O)O)C(=O)N[C@@H](CCC(=O)O)C(=O)N[C@H](C(=O)N[C@@H](CC(=O)O)C(=O)N[C@@H](Cc1cn(CCCC[n+]2ccc(/C=C/c3ccc(C(=C(c4ccccc4)c4ccccc4)c4ccccc4)cc3)cc2)nn1)C(N)=O)C(C)C [Ac-DEVD-PyTPE]
probe fluorescence in normal un-induced cells ([1]; 5 μM, 1% DMSO, 2 h): extremely low fluorescence signal | probe fluorescence in STS-induced apoptotic cells ([1]; probe 5 μM, STS 3 μM): strong fluorescence signals | fluorescence of the probe treated with caspase-3 (caspase-3; PIPES buffer pH 7.2, caspase-3 5 μg mL^−1, probe 10 μM): strong fluorescence signals | fold higher change in (I−I0)/I0 than the other four enzymes (caspase-3; caspase-3 vs pepsin, trypsin, papain, lysozyme, protein 20 μg mL^−1, λex 405 nm, λem 610 nm): about 43 fold | fold higher change in (I−I0)/I0 than the other four enzymes (caspase-7): ~36 fold | fluorescence enhancement of apoptotic tumoral tissues relative to normal tissues (subcutaneous C6 tumor; STS pretreatment, 5 min after intratumoral injection of probe): 3 fold | fluorescence of excised tumor/(+)STS tissues (subcutaneous C6 tumor; [6]): high fluorescence signal | fluorescence of excised tumor/(−)STS tissues (subcutaneous C6 tumor; [6]): almost no fluorescence | viability [2]: ~100%

COC[C@@H]1CCCN1S(=O)(=O)c1ccc2c(c1)C(=O)C(=O)N2 [MPS, 5-[(S)-(+)-2-(methoxymethyl)pyrrolidino]sulfonylisatin, reference compound]
probe fluorescence in STS-induced cells pre-treated with inhibitor ([1]; inhibitor 10 μM before incubation with Ac-DEVD-PyTPE): greatly reduced | inhibition of caspase-3 cleavage of Ac-DEVD-PyTPE (fluorescence) (caspase-3; pre-treatment with inhibitor 10 μM, PIPES buffer): Most of the fluorescence was readily competed away

C[n+]1ccc(/C=C/c2ccc(C(=C(c3ccccc3)c3ccccc3)c3ccccc3)cc2)cc1 [TPEPy-PF6]
luminescence intensity remaining relative to initial value (HeLa cells): ~70% | solubility in water (Solubility): not soluble | mitochondria staining: position, shape and amounts compared with MitoTracker Red ([3]; 5 μM with MitoTracker Red 100 nM, 37° C.): the same as for MitoTracker Red | toxicity to living cells (cell morphology) ([3]; 5 μM): low toxicity

CN[C@@H]1C[C@H]2O[C@@](C)([C@@H]1OC)n1c3ccccc3c3c4c(c5c6ccccc6n2c5c31)C(=O)NC4 [STS, staurosporine]
efficacy of apoptosis inducing agent (tumor fluorescence) (C6 tumor): strongest fluorescence | apoptosis-inducing capability (cell fluorescence increase) (MCF-7 cells): strongest fluorescence enhancement

CC[n+]1c(/C=C/c2ccc(C(=C(c3ccccc3)c3ccccc3)c3ccccc3)cc2)sc2ccccc21 [TPEBe-ClO4]
solubility in common organic solvents (Solubility): soluble | solubility in water (Solubility): insoluble | emission intensity upon addition of Hg^2+ ([4]; Hg^2+ 0-2.0 mM, pH 7.4 HEPES, 1% DMSO): also increased

CC[n+]1c(/C=C/c2ccc(C(=C(c3ccccc3)c3ccccc3)c3ccccc3)cc2)sc2ccccc21 [TPEBe-PF6]
solubility in common organic solvents (Solubility): soluble | solubility in water (Solubility): insoluble; also recorded: not soluble

CC[n+]1c(/C=C/c2ccc(C(=C(c3ccccc3)c3ccccc3)c3ccccc3)cc2)sc2ccccc21 [TPEBe-I]
emission intensity increase ([5]; ATP 600 μM, luminogen 20 μM, λex 480 nm): 20 fold | emission change with ADP and AMP ([5]; other nucleotides, aqueous solution with 1% DMSO): negligible changes | solubility in common organic solvents (Solubility): soluble | solubility in water (Solubility): insoluble | emission intensity enhancement ([4]; Hg^2+ 2.0 mM, luminogen 20 μM, pH 7.4 HEPES, 1% DMSO, λex 480 nm): 80 fold | emission change with other metal ions ([4]; Zn, Ni, Co, Cd, Cu, Mn, Ca, Fe, Mg, Ag, Pd ions 2.0 mM): negligible changes | detection amount of Hg^2+ ([4]; solid-state film, aqueous Hg^2+ 5 μL): 1 µM
